# Experimental data published in the supplement of paper PMC10307832.
# Assays:
# Assay in all cases: relative viability (nuclei count vs DMSO), 5 days (fraction); higher = more cells survive
# [1] = compound: COC1=C(C=C(C=C1)C2=CC3=NC=CN3C(=N2)NC4=C(C=CC=N4)C(=O)N)OC [BAY61-3606] + CC1(C)CCC(c2ccc(Cl)cc2)=C(CN2CCN(c3ccc(C(=O)NS(=O)(=O)c4ccc(N[C@H](CCN5CCOCC5)CSc5ccccc5)c(S(=O)(=O)C(F)(F)F)c4)cc3)CC2)C1 [Navitoclax] (partner 0.5 µM)
# How it was run: (§1)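 Lung cancer cell lines in 1536-well plates were dosed by pin tool the day after seeding, either with one drug alone or with a fixed anchor-drug dose plus five library-drug doses (not always all listed) in √10 steps. After 5 days, cells were fixed and their nuclei stained in one step (final 0.05% Triton X-100, 1% formaldehyde, 1 ug/ml Hoechst), then counted on 4× images. Relative viability is the nuclei count in treated wells divided by that in vehicle wells. Values are medians of duplicate plates.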
# [2] = compound: COC1=C(C=C(C=C1)C2=CC3=NC=CN3C(=N2)NC4=C(C=CC=N4)C(=O)N)OC [BAY61-3606] + N=C(N)NC(=N)NCCc1ccccc1 [Phenformin] (partner 250 µM)
# How it was run: as §1
# [3] = compound: COc1cccc2c1C(=O)c1c(O)c3c(c(O)c1C2=O)C[C@@](O)(C(=O)CO)C[C@@H]3O[C@H]1C[C@H](N)[C@H](O)[C@H](C)O1 [Doxorubicin] + CCNC(=O)c1noc(-c2cc(C(C)C)c(O)cc2O)c1-c1ccc(CN2CCOCC2)cc1 [Luminespib] (partner 0.01 µM)
# How it was run: as §1
# [4] = compound: COc1cccc2c1C(=O)c1c(O)c3c(c(O)c1C2=O)C[C@@](O)(C(=O)CO)C[C@@H]3O[C@H]1C[C@H](N)[C@H](O)[C@H](C)O1 [Doxorubicin] + Cc1nc(NC(=O)N2CCC[C@H]2C(N)=O)sc1-c1ccnc(C(C)(C)C(F)(F)F)c1 [Alpelisib] (partner 2 µM)
# How it was run: as §1
Cell Line,relative viability ([1]; first compound 0.02 µM),relative viability ([1]; first compound 0.06325 µM),relative viability ([1]; first compound 0.2 µM),relative viability ([1]; first compound 0.6325 µM),relative viability ([1]; first compound 2 µM),relative viability ([2]; first compound 0.02 µM),relative viability ([2]; first compound 0.06325 µM),relative viability ([2]; first compound 0.2 µM),relative viability ([2]; first compound 0.6325 µM),relative viability ([2]; first compound 2 µM),relative viability ([3]; first compound 0.001 µM),relative viability ([3]; first compound 0.003162 µM),relative viability ([3]; first compound 0.01 µM),relative viability ([3]; first compound 0.03162 µM),relative viability ([3]; first compound 0.1 µM),relative viability ([4]; first compound 0.001 µM),relative viability ([4]; first compound 0.003162 µM),relative viability ([4]; first compound 0.01 µM),relative viability ([4]; first compound 0.03162 µM),relative viability ([4]; first compound 0.1 µM)
NCI-H1651,1.21,1.09,0.964,1.17,0.909,0.332,0.311,0.325,0.279,0.302,0.749,0.954,0.66,0.305,0.216,0.902,0.996,0.875,0.424,0.201
NCI-H1666,1.17,,1.06,0.965,1.02,0.544,0.538,0.524,0.531,0.491,1.01,0.868,0.735,0.442,0.411,0.938,0.814,0.551,0.27,0.284
NCI-H1734,0.904,0.727,0.786,0.829,0.529,0.446,0.338,0.288,0.354,0.244,0.869,0.196,0.175,0.18,0.213,0.589,0.682,0.662,0.604,0.661
NCI-H1755,1.03,1.02,0.993,1.06,0.782,0.666,0.6,0.578,0.656,0.59,0.361,0.273,0.597,0.381,0.323,0.918,0.992,0.719,0.947,0.94
NCI-H1792,0.663,0.637,0.646,0.596,0.696,0.37,,0.336,0.544,0.333,,0.467,0.43,0.527,0.328,0.794,0.836,0.538,0.679,0.548
NCI-H1793,0.547,0.578,0.471,0.459,0.249,0.363,0.216,,0.41,0.271,,0.228,0.289,0.159,0.263,,0.557,0.675,0.389,0.588
NCI-H1915,0.775,0.779,0.715,0.755,0.765,0.369,0.376,0.328,0.366,0.261,0.802,0.733,0.702,0.715,0.779,0.98,1.05,1.1,1.05,1.12
NCI-H1944,1.12,1.1,1.01,1.02,1.04,0.211,0.196,0.193,0.201,0.182,0.725,0.733,0.751,0.674,0.651,0.8,0.836,0.851,0.83,0.885
NCI-H1975,1.16,0.937,1.02,1.04,0.72,0.41,0.413,0.412,0.394,0.301,0.139,0.183,0.249,0.167,0.178,0.64,0.597,0.625,0.334,0.232
NCI-H1993,0.831,0.785,0.707,0.819,0.739,0.547,0.502,0.545,0.493,0.543,1.8,0.859,0.8,0.713,0.727,0.677,0.627,0.696,0.627,0.619
NCI-H2009,1.14,1.22,1.14,1.15,1.11,0.524,0.38,0.469,0.524,0.424,1.07,0.979,1.01,0.925,0.582,1.08,1.2,1.17,1.07,0.478
NCI-H2023,1.03,1.05,1.07,1.02,0.873,0.491,0.369,0.386,0.438,0.322,0.765,0.677,0.243,0.0918,0.0632,0.595,0.617,0.524,0.203,0.0842
NCI-H2085,1.31,1.23,1.12,1.33,1.01,0.793,0.755,0.717,0.757,0.64,0.471,0.462,0.46,0.47,0.478,0.936,1,0.992,0.739,0.686
NCI-H2087,0.896,1.06,0.981,0.922,0.82,0.432,0.463,0.44,0.411,0.384,,0.19,0.14,0.133,0.144,1.2,1.15,1.19,0.984,0.862
NCI-H2126,0.88,0.823,0.769,0.759,0.742,0.547,0.496,0.524,0.491,0.47,0.643,0.88,0.817,0.394,0.286,0.743,0.775,0.755,0.711,0.796
NCI-H2170,0.618,0.607,0.572,0.517,0.259,0.399,0.356,0.434,0.401,0.385,0.484,0.89,0.772,0.5,0.758,0.896,0.966,0.727,0.682,0.877
